Source: PubChem BioAssay AID2060511 (Molecular Pharmacology Branch, DTP, NCI, 2025)

Tested on: 422866-222-R5-J1-PDC spheroids with HUVEC/MSC, viability
Experiment: Anticancer human tumor 422866-222-R5-J1-PDC patient-derived pancreatic adenocarcinoma cell line growth inhibition [GQUAD]
Conditions: for IC50: curve of first compound; for viability, T/C: stronger effect = lower value
Summary of the method: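 Multi-cell-type spheroids of tumor cells with HUVEC and mesenchymal stem cells, treated with drug combinations. Concentrations descend in half-log steps from near clinical Cmax, or from 10 microM where Cmax is unknown; viability read-out.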

[1] = second compound 0.0316 µM, first compound 0.0316 µM
[2] = second compound 0.0316 µM, first compound 0.1 µM
[3] = second compound 0.0316 µM, first compound 0.316 µM
[4] = second compound 0.0316 µM, first compound 1 µM
[5] = second compound 0.0316 µM, first compound 3.16 µM
[6] = second compound 0.0316 µM, first compound 10 µM
[7] = second compound 0.1 µM, first compound 0.0316 µM
[8] = second compound 0.1 µM, first compound 0.1 µM
[9] = second compound 0.1 µM, first compound 0.316 µM
[10] = second compound 0.1 µM, first compound 1 µM
[11] = second compound 0.1 µM, first compound 3.16 µM
[12] = second compound 0.1 µM, first compound 10 µM
[13] = second compound 0.316 µM, first compound 0.0316 µM
[14] = second compound 0.316 µM, first compound 0.1 µM
[15] = second compound 0.316 µM, first compound 0.316 µM
[16] = second compound 0.316 µM, first compound 1 µM
[17] = second compound 0.316 µM, first compound 3.16 µM
[18] = second compound 0.316 µM, first compound 10 µM
[19] = second compound 1 µM, first compound 0.0316 µM
[20] = second compound 1 µM, first compound 0.1 µM
[21] = second compound 1 µM, first compound 0.316 µM
[22] = second compound 1 µM, first compound 1 µM
[23] = second compound 1 µM, first compound 3.16 µM
[24] = second compound 1 µM, first compound 10 µM
[25] = second compound 3.16 µM, first compound 0.0316 µM
[26] = second compound 3.16 µM, first compound 0.1 µM
[27] = second compound 3.16 µM, first compound 0.316 µM
[28] = second compound 3.16 µM, first compound 1 µM
[29] = second compound 3.16 µM, first compound 3.16 µM
[30] = second compound 3.16 µM, first compound 10 µM
[31] = second compound 10 µM, first compound 0.0316 µM
[32] = second compound 10 µM, first compound 0.1 µM
[33] = second compound 10 µM, first compound 0.316 µM
[34] = second compound 10 µM, first compound 1 µM
[35] = second compound 10 µM, first compound 3.16 µM
[36] = second compound 10 µM, first compound 10 µM
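Further: spheroids exposed to compounds for seven days before reading.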
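Wherever viability, T/C is given: percent viability relative to DMSO vehicle control taken as 100%.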

`CC(C)(O)C1CCC(Nc2ccc3ncc(-c4cccc(C(F)(F)F)c4)n3n2)CC1` (centres undefined) + Cc1cnc(CNC(=O)c2c(=O)c3ccc(N4CCCN(C)CC4)nc3n3c2sc2ccccc23)cn1 showed an IC50 (second compound 0.0316 µM) of 1.44 µM, an IC50 (second compound 0.1 µM) greater than 10 µM and an IC50 (second compound 0.316 µM) greater than 10 µM. For the same compound, the IC50 (second compound 1 µM) was greater than 10 µM, the IC50 (second compound 3.16 µM) was greater than 10 µM and the IC50 (second compound 10 µM) was 1.81 µM. For the same compound, the viability, T/C [1] was 102%, the viability, T/C [2] was 80.6% and the viability, T/C [3] was 97.1%. It also gave a viability, T/C [4] of 51.4%, a viability, T/C [5] of 42% and a viability, T/C [6] of 51.8%. The viability, T/C [7] was 91.4%, the viability, T/C [8] was 76.3% and the viability, T/C [9] was 81.2%. For the same compound, the viability, T/C [10] was 66.5%, the viability, T/C [11] was 58.8% and the viability, T/C [12] was 63.7%. The viability, T/C [13] was 86.8%, the viability, T/C [14] was 83.9% and the viability, T/C [15] was 75.1%. For the same compound, the viability, T/C [16] was 78.6%, the viability, T/C [17] was 76.3% and the viability, T/C [18] was 75.5%. The viability, T/C [19] was 74.6%, the viability, T/C [20] was 88.7% and the viability, T/C [21] was 79.4%. For the same compound, the viability, T/C [22] was 75.6%, the viability, T/C [23] was 82.3% and the viability, T/C [24] was 75.4%. The viability, T/C [25] was 71.1%, the viability, T/C [26] was 101% and the viability, T/C [27] was 76%. It also gave a viability, T/C [28] of 72.8%, a viability, T/C [29] of 68.5% and a viability, T/C [30] of 54.1%. It also gave a viability, T/C [31] of 83%, a viability, T/C [32] of 67.8% and a viability, T/C [33] of 83.2%. The viability, T/C [34] was 75.5%, the viability, T/C [35] was 25.9% and the viability, T/C [36] was 0.79%.
For `O=C(NO)c1cnc(N2CCN(S(=O)(=O)c3ccc4ccccc4c3)CC2)nc1` + Cc1cnc(CNC(=O)c2c(=O)c3ccc(N4CCCN(C)CC4)nc3n3c2sc2ccccc23)cn1, the IC50 (second compound 0.0316 µM) was 0.824 µM, the IC50 (second compound 0.1 µM) was 1.64 µM and the IC50 (second compound 0.316 µM) was 1.65 µM. It also gave an IC50 (second compound 1 µM) of 1.73 µM, an IC50 (second compound 3.16 µM) of 1.46 µM and an IC50 (second compound 10 µM) of 0.574 µM. The viability, T/C [1] was 89.8%, the viability, T/C [2] was 75.8% and the viability, T/C [3] was 60.2%. For the same compound, the viability, T/C [4] was 43%, the viability, T/C [5] was 42% and the viability, T/C [6] was 2.99%. The viability, T/C [7] was 86.4%, the viability, T/C [8] was 75.1% and the viability, T/C [9] was 93.6%. For the same compound, the viability, T/C [10] was 49.1%, the viability, T/C [11] was 40.2% and the viability, T/C [12] was 5.96%. It also gave a viability, T/C [13] of 90.9%, a viability, T/C [14] of 84% and a viability, T/C [15] of 85.9%. It also gave a viability, T/C [16] of 52.7%, a viability, T/C [17] of 39.9% and a viability, T/C [18] of 6.44%. It also gave a viability, T/C [19] of 71.9%, a viability, T/C [20] of 86.8% and a viability, T/C [21] of 82.2%. It also gave a viability, T/C [22] of 63.1%, a viability, T/C [23] of 33.5% and a viability, T/C [24] of 4.12%. For the same compound, the viability, T/C [25] was 70.5%, the viability, T/C [26] was 91.8% and the viability, T/C [27] was 63.5%. For the same compound, the viability, T/C [28] was 56.9%, the viability, T/C [29] was 35.7% and the viability, T/C [30] was 0.26%. The viability, T/C [31] was 72.3%, the viability, T/C [32] was 74.6% and the viability, T/C [33] was 65.1%. It also gave a viability, T/C [34] of 33.4%, a viability, T/C [35] of 21% and a viability, T/C [36] of 0.26%.
